Experiments:
Experiment in all cases: In Vitro Enzyme Inhibition Assay
[1] = biological target: T1, Cathepsin K (Homo sapiens, UniProt P43235); settings: pH 5.5; 22 °C
T1 sequence (P43235 whole entry): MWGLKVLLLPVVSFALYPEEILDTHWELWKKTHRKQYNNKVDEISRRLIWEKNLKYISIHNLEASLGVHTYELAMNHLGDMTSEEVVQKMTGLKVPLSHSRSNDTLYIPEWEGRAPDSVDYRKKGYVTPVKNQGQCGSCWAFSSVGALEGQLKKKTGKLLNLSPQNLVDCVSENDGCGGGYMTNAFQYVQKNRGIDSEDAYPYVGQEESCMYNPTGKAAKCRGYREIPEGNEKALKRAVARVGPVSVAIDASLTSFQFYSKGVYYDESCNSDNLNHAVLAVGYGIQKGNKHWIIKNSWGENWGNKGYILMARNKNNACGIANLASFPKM
Procedure: (§1) Assays were carried out in the presence of variable concentrations of test compound. Reactions were initiated by addition of enzyme to buffered solutions of inhibitor and substrate. Product fluorescence (excitation at 360 nm, emission at 460 nm) was monitored with a fluorescent plate reader.

[2] = biological target: Cathepsin S (Homo sapiens, UniProt P25774)
Procedure: as §1

[3] = biological target: Procathepsin L (Homo sapiens, UniProt P07711)
Procedure: as §1

Sequence of Procathepsin L (P07711 whole entry): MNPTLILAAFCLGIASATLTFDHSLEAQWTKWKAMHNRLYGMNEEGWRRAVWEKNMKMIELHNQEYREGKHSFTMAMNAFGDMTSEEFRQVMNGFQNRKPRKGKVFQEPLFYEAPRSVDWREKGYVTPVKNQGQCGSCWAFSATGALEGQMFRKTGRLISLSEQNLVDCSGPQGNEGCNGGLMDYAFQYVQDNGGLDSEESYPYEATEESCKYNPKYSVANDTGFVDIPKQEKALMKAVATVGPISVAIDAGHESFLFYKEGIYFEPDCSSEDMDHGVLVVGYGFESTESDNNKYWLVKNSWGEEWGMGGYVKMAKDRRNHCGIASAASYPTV
Sequence of Cathepsin S (P25774 whole entry): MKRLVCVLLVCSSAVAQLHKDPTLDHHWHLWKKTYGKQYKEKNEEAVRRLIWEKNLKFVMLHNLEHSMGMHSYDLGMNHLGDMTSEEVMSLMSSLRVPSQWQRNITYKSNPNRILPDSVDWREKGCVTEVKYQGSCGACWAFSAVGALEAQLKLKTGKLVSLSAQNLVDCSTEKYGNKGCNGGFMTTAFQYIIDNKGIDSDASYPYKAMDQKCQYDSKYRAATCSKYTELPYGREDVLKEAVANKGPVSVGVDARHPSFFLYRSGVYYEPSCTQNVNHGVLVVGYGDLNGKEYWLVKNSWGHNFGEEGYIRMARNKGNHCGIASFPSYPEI

What does the source list for CN[C@@H](CC(C)C)C(=O)N1CC(=O)C(NC(=O)[C@H](CC(C)C)NC(=O)OCc2ccccc2)C1 (stereo partly drawn) [[(2S)-1-{3-[(2S)-2-{[(benzyloxy)carbonyl]amino}-4-methylpentanamido]-4-oxopyrrolidin-1-yl}-4-methyl-1-oxopentan-2-yl](methyl)azanium chloride]?
Ki [1]: 77 nM; Ki [2]: 290 nM; Ki [3]: 400 nM

— BindingDB's records for doi:10.1021/jm000320t (Gsk, 2001)
